Source: patent publication US20220041957A1, “GLUCAMIDE-BASED SURFACTANTS” (Clariant International Ltd., priority 2018, published 2022)

How the values were obtained:
Foam (collapse) test = assay type: physicochemical; settings: 20 mL of 1 wt. % solution, 20 shakes; for Foam Height, 2 min: after 2 min; for Foam Height, 3 min: after 3 min; for Foam Height, 5 min: after 5 min; for Foam Height, Initial: directly after shaking
Experimental: 20 mL of 1 wt. % solution of each substance were placed into a graduated 100 mL measurement cylinder, which was sealed with a stopper. Foam was generated by 20 shakes. The foam height was determined as mL foam above the aqueous layer directly after shaking, after 2, 3 and 5 min.

[1] = Wetting test on cotton swatches; assay type: physicochemical; settings: 0.1 wt. % surfactant solution in water; for Wetting Performance: rating in words; for Wetting time: time until swatch sinks to bottom
Experimental: Cotton swatches (ISO 8022, obtained from wfk-Testgewebe GmbH) were placed in 600 mL beaker, filled with the corresponding 0.1 wt. % surfactant solution in water. The time between placing the swatches into the solution and sinking to the bottom was measured.

With CCCCCCCCCCCC(O)CC(=O)N(C)C[C@H](O)[C@@H](O)[C@H](O)[C@H](O)CO (stereo partly drawn) [Example 2] the “Foam Height, 2 min” value (Foam (collapse) test) was 60 mL, the “Foam Height, 3 min” value (Foam (collapse) test) was 33 mL and the “Foam Height, 5 min” value (Foam (collapse) test) was 19 mL. For the same compound, the “Foam Height, Initial” value (Foam (collapse) test) was 80 mL, the “Wetting Performance” value [1] was “good” and the Wetting time [1] was 60 s.
In the case of CN(C[C@H](O)[C@@H](O)[C@H](O)[C@H](O)CO)C(=O)CCCCCCCCCCCCCCCO [Example 4], the “Foam Height, 2 min” value (Foam (collapse) test) is reported as 67 mL, the “Foam Height, 3 min” value (Foam (collapse) test) is reported as 50 mL and the “Foam Height, 5 min” value (Foam (collapse) test) is reported as 33 mL. The “Foam Height, Initial” value (Foam (collapse) test) was 89 mL, the “Wetting Performance” value [1] was “poor” and the Wetting time [1] was over 300 s.
